# Laboratory results published in US10639287B2, “Compounds for the treatment of mitochondrial diseases” (UNIVERSITE PARIS-SUD, priority 2014, dated 2020).
# How the values were obtained:
# [1] = tested on: homozygous TB2143 nematodes (polg-1(ok1548Δ/Δ)); assay: Amount of mtDNA of homozygous nematodes depleted of mtDNA; type: in vivo, Caenorhabditis elegans
# Experimental: Ten homozygous or wild-type TB2143 larvae (polg-1(ok1548Δ/Δ)) at stage L4 were deposited on each NGM dish containing either DMSO or 50 μM clofilium tosylate (three dishes for each treatment group). They were incubated at 20° C. until the 6th day of adulthood. Extraction of the total nematode DNAs was performed with the Nucleospin Kit Tissue kit (Macherey Nagel). The quantifications of mtDNA and nuclear DNA were performed as described in Addo et al., 2010 (Addo, M. G., Cossard, R., Pichard, D., Obiri-Danso, K., Rötig, A. and Delahodde, A. (2010) Caenorhabditis elegans, a pluricellular model organism to screen new genes involved in mitochondrial genome maintenance. BBA-Mol. Basis Dis., 1802, 765-773).
# polg-1(ok1458Δ/+) strain = assay: Non-toxic concentration (MIC) in nematode, larval development over 4 days, polg-1 mutated line; type: in vivo, Caenorhabditis elegans; conditions: 1 μM to 50 μM
# Experimental: A series of NGM dishes containing clofilium tosylate at concentrations of 1 μM, 5 μM, 10 μM, 50 μM, 100 μM or 200 μM were prepared (three dishes for each concentration). Between 30 and 40 synchronised L1 larvae of the wild-type N2 BRISTOL line or mutated VC1224 line (polg-1(ok1458Δ/+)/mT1 II; +/mT1 [dpy-10(el28)] II), these being nematodes carrying a heterozygous deletion of 2149 bp in the sequence encoding the polg-1 gene, were deposited on each of these dishes.
# [2] = tested on: yeast cells expressing the wild-type MIP1 gene or the mutated mip1^G651S gene; assay: Respiration (O2 consumption) of yeast cells, HANSATECH electrode; type: cell-based, Saccharomyces cerevisiae; conditions: 32 μM vs DMSO
# Experimental: The respiration rate is the amount of oxygen consumed per unit of time and biological material. It reflects the activity of the oxidative metabolism of the cells.
# Oxygen consumption was measured on whole cells using a HANSATECH electrode. The yeast cells expressing the wild-type MIP1 gene or the mutated mip1^G651S gene were cultured for 7-8 generations in a YPE medium (1% Yeast Extract, 0.5% Bacto Peptone, 2% Ethanol) supplemented with DMSO or 32 μM clofilium tosylate at 28° C. with stirring. A volume corresponding to a total of 60 units of DO600 of each culture was centrifuged for 5 min at 3000 g. The pellet was resuspended in YPE in order to have 6.10^5 cells/μl. 50 μL, that is to say 3.10^7 cells, were introduced into the measuring chamber of the HANSATECH electrode, which was maintained at 28° C. The O2 consumption was observed and recorded in real time. The O2 consumption rate was calculated from the linear part of the O2 consumption curve.
# [3] = tested on: wild-type Mip1 or mutated Mip1G651S yeast protein; assay: Amount of Mip1 proteins in mitochondria-enriched extracts (SDS/PAGE, western blot); type: cell-based, Saccharomyces cerevisiae; conditions: 32 μM vs DMSO
# Experimental: The analysis of the effect of clofilium tosylate on the amount of wild-type or mutated Mip1 proteins was carried out on cell extracts enriched in mitochondria. In order to visualise the expression of the Mip1 and Mip1G651S proteins, the sequence encoding three HA epitopes was cloned in 3′ and in phase with the coding sequence of Mip1 and Mip1G651S.
# The yeast cells were cultured in selective medium (SC-TRP, 2% ethanol) overnight. Then, the cells were seeded at an initial optical density (DO600) of 0.05 in 100 mL of YPE (1% Yeast Extract, 0.5% Bacto Peptone, 2% Ethanol) supplemented either by DMSO or by 32 μM clofilium tosylate at 28° C. with stirring until a DO600 between 3 and 4 was achieved. The cells were centrifuged at 3000 g for 5 min and washed with water. The isolation of the fraction enriched in mitochondria and protein extraction of this fraction were carried out according to the protocol described by Hoffman et al., 2009 (Hofmann, L., Saunier, R., Cossard, R., Esposito, M., Rinaldi, T. and Delahodde, A. (2009) A non-proteolytic proteasome activity controls organelle fission in yeast. J. Cell. Sci., 122, 3673-3682).
# The protein extracts of the fractions enriched in mitochondria were analysed by SDS/PAGE gel electrophoresis (6% for the analysis of the proteins Mip1-HA and Mip1G651S-HA and 10% for the analysis of Cox2 mitochondrial proteins (encoded by mtDNA) and porin). […]
# [4] = tested on: haploinsufficient TB2143 nematodes (polg-1(ok1458Δ/+)); assay: Test for resistance to ethidium bromide of haploinsufficient polg-1 nematodes; type: in vivo, Caenorhabditis elegans; conditions: 50 μM, 30 μg/mL ethidium bromide, 4 days
# From the text: Ethidium bromide is an intercalating agent of DNA, especially of mtDNA, rich in adenine and thymidine. At high concentrations it halts the development of the worms at stage L3 (Addo, M. G., Cossard, R., Pichard, D., Obiri-Danso, K., Rötig, A. and Delahodde, A. (2010) Caenorhabditis elegans, a pluricellular model organism to screen new genes involved in mitochondrial genome maintenance. BBA-Mol. Basis Dis., 1802, 765-773. The haploinsufficient TB2143 nematodes (polg-1(ok1458Δ/+)) are highly sensitive to low doses of ethidium bromide (30 μg/mL) with 90% of the larvae halted at stage L3.
# Around thirty wild-type larvae or larvae mutated in polg-1 (TB2143 line (polg-1(ok1458Δ/+))) synchronised at stage L1 were deposited on NGM dishes containing 30 μg mL ethidium bromide and either DMSO or 50 μM clofilium tosylate (experiment performed in triplicate). Larval development was examined after 4 days of treatment.
smiles,measurement,setting,value
CCCCCCC[N+](CC)(CC)CCCCc1ccc(Cl)cc1.Cc1ccc(S(=O)(=O)[O-])cc1 [clofilium tosylate],amount of mtDNA of homozygous TB2143 nematodes,[1]; 50 μM vs DMSO,Clofilium tosylate increased the amount of mtDNA of homozygous TB2143 nematodes (polg-1(ok1548Δ/Δ)) depleted of mtDNA.
same,mtDNA/nuDNA,"[1]; polg-1(ok1548Δ/Δ), 50 μM, 6th day of adulthood",69.2
same,larval development,polg-1(ok1458Δ/+) strain,developed similarly
same,respiration of yeast cells (O2 consumption),[2],breathed better
same,amount of wild-type Mip1 or mutated Mip1G651S yeast protein,[3],increased
same,resistance to ethidium bromide,[4],increased resistance
